From publication doi:10.1101/2020.10.07.312850v1 (bioRxiv, 2020)
Non-standard residues stand in square brackets, D forms with d. Residues, ends and D or L forms follow the SMILES beside them. *: point of attachment. Palmitoyl = CCCCCCCCCCCCCCCC(=O)*

Experiments:
[1] = chemical penetration enhancers, cited from earlier work; for Solubility: solvent and source not given; for LogP: source not given
[2] = In vitro skin permeation testing, Franz type diffusion cells; format: in vitro ADME; settings: 5% (w/v) in PG, human epidermis, Franz cell, 32 °C, 24 h
[3] = Peptide human skin retention after 24 h; format: in vitro ADME
melanin = settings: 16 weeks of twice daily treatment; reference not given; cited from earlier work
mushroom tyrosinase = settings: cited from earlier work
human tyrosinase = settings: cited from earlier work

For CC12CCC(CC1=O)C2(C)C (centres unmarked) [Camphor], the Solubility [1] is given as 1100 µg/mL and the LogP [1] is given as 2.1 ± 0.3.
For CC1CCC(C(C)C)C(O)C1 (centres unmarked) [Menthol], the Solubility [1] is listed as 1500 µg/mL and the LogP [1] is listed as 3.2 ± 0.2.
For CCCCCCCC/C=C\CCCCCCCC(=O)O [Oleic acid], the Solubility [1] is listed as 2 µg/mL and the LogP [1] is listed as 7.4 ± 0.2.
In the case of CCCCCCCCCCCCCCCC(=O)N[C@@H](Cc1ccc(O)cc1)C(=O)N[C@@H](CCCNC(=N)N)C(=O)N[C@@H](CO)C(=O)N[C@@H](CCCNC(=N)N)C(=O)N[C@@H](CCCCN)C(=O)N[C@H](Cc1ccc(O)cc1)C(=O)N[C@@H](CO)C(=O)N[C@@H](CO)C(=O)N[C@@H](Cc1c[nH]c2ccccc12)C(=O)N[C@@H](Cc1ccc(O)cc1)C(N)=O [Palm-peptide] (Palmitoyl-YRSRK[dY]SSWY-NH2), the “Effect of CPE on skin permeation” value ([2]; menthol) is reported as “enhancing effect”, the “Effect of CPE on skin permeation” value ([2]; oleic acid) is reported as “inhibitory effects” and the “Percentage of peptide retained inside skin (dose-normalised)” value ([3]; MN patch, human epidermis, 24 h) is reported as under 0.1%. The “Highest peptide concentration in skin” value ([3]; estimated from skin retention after 24 h) was 9.0 µg/g.
For “YRSRKYSSWY [Native peptide, decapeptide-12]”, the “Skin retention of peptide after 24 h” value ([3]; MN patch, human epidermis, Franz cell, 32 °C, 24 h, HPLC-UV 280 nm, triplicates) is listed as “No peptides were detected”, the “Efficacy in reducing content of melanin” value (melanin) is listed as “more than 50%” and the “Competitive inhibition compared with hydroquinone” value (mushroom tyrosinase) is listed as “stronger competitive inhibition effect”. The “Competitive inhibition compared with hydroquinone” value (human tyrosinase) was “stronger competitive inhibition effect”.
